What all share (test): inhibition of tumour cell growth, NCI panel, 48 h
Test [1] relates to 786-0 renal.
For test [2], the system named is A498 renal.
Test [3] has as its system DU-145 prostate.
For test [4], the system named is EKVX NSCLC.
Test [5] deals with HOP-92 NSCLC.
The test system of test [6] is HS 578T breast.
The subject of test [7] is HT29 colon.
Test [8] has as its system MDA-N.
The subject of test [9] is NCI-H226 lung.
The test system of test [10] is NCI/ADR-RES ovarian.
For test [11], the system named is OVCAR-4 ovarian.
Test [12] deals with OVCAR-5 ovarian.
Test [13] relates to PC-3 prostate.
The subject of test [14] is RXF 393 renal.
Test [15] concerns SK-MEL-28 melanoma.
In test [16] the test system is SK-MEL-5 melanoma.
Test [17] has as its system SNB-19 CNS.
Test [18] deals with UACC-62 melanoma.

Eight molecules from PubChem BioAssay (NCI) can be followed below.

The structures appear in SMILES notation.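 Dose response: 5 concentrations. Exposure: 48 h. Format: 96-well plates. Endpoint: linear interpolation; highest concentration if not reached. Definition used: TGI = concentration required for complete inhibition of growth.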

Regarding `O=C(CSc1ncccn1)N/N=C/c1ccccc1OCc1ccccc1`, the TGI in [1] was above 100 µM; in [2] it was 71.8 µM; in [3], 96.7 µM; in [4] it was 83.1 µM; in [5], 78.3 µM; in [6], 95.3 µM. Moreover, the TGI in test [7] was above 100 µM; in test [8], 60.9 µM; in [9] it was 55.1 µM; in test [10], above 100 µM; in test [11] it was above 100 µM; in test [12] it was above 100 µM. In addition, the TGI in [13] is above 100 µM; in test [14], 55.6 µM; in [15], above 100 µM; in test [16], 28.4 µM; in [17], above 100 µM; in [18], 50.4 µM.

On to `O=C1CC(Br)c2c(Br)sc(Br)c21` (centres undefined), for which the TGI is 29.9 µM in [1]; above 100 µM in test [2]; 45.7 µM in [3]; 39 µM in test [4]; 31.5 µM in test [5]; above 100 µM in [6]. In addition, the TGI in test [7] was 30.4 µM; in test [8], 28.8 µM; in [9] it was 54.6 µM; in [10], above 100 µM; in test [11] it was 33.3 µM; in [12], 31.9 µM. Moreover, the TGI was 39.4 µM in test [13]; 32.9 µM in test [14]; above 100 µM in test [15]; 35.4 µM in test [16]; 76.2 µM in test [17]; 30.8 µM in [18].

On to `CC(NC(=O)OCc1ccccc1)NC(=O)OC(C)(C)C` (centres undefined), for which the TGI in test [1], in test [2], in test [3], in test [4], in test [5] and in [6] was above 100 µM in each case. The TGI in test [7], in [8], in test [9], in test [10], in test [11] and in test [12] was above 100 µM each time. For the same molecule, the TGI in test [13] was above 100 µM; in test [14], 84.3 µM; in [15], above 100 µM; in test [16] it was above 100 µM; in test [17] it was above 100 µM; in test [18], above 100 µM.

`COC(=O)c1ccccc1/C=C1\Cc2c(C)c3c(c(C)c2C1=O)CCC3`: the TGI in test [1] is above 100 µM; in test [2] it was above 100 µM; in test [3], above 100 µM; in test [4], above 100 µM; in test [5] it was above 100 µM; in [6] it was 95.6 µM. For the same molecule, the TGI in test [7], in [8], in test [9], in [10], in [11] and in [12] was above 100 µM throughout. Further, the TGI in [13], in test [14], in test [15], in test [16], in test [17] and in test [18] was above 100 µM throughout.

With `CCSc1nnc(Sc2c3ccccc3nc3ccccc23)s1`, the TGI in test [1] was 7.54 µM; in test [2], above 62.4 µM; in test [3], 30.2 µM; in [4], 16.7 µM; in test [5] it was above 44.8 µM; in test [6], above 100 µM. Further, the TGI is above 55.6 µM in test [7]; 25.1 µM in test [8]; above 78.9 µM in test [9]; above 64.2 µM in test [10]; 34.7 µM in [11]; 43.4 µM in [12]. Also, the TGI in test [13] was 46.7 µM; in [14] it was 35.3 µM; in test [15] it was above 59.1 µM; in [16], 38.6 µM; in test [17], above 84.5 µM; in test [18] it was 31.6 µM.

In the case of `CC1=NN(c2ccccc2)C2(C1)C(Cl)C(=O)N2c1nc2ccccc2s1` (centres undefined), the TGI in [1], in [2], in test [3], in [4], in test [5] and in test [6] was above 100 µM each time. The TGI in [7] was above 100 µM; in [8], above 100 µM; in test [9], 85.7 µM; in test [10], 68.5 µM; in test [11], above 100 µM; in [12], above 100 µM. Besides, the TGI was above 100 µM in [13]; 97.7 µM in test [14]; above 100 µM in test [15]; 73.3 µM in [16]; above 100 µM in test [17]; above 100 µM in test [18].

On to `CC[C@@]1(O)C(=O)OCc2c1cc1n(c2=O)Cc2c-1nc1ccccc1c2/C=N\NC(=O)C[n+]1ccccc1`, for which the TGI was above 27.8 µM in [1]; 21.4 µM in test [2]; 14.3 µM in test [3]; above 100 µM in test [4]; above 31.6 µM in test [5]; above 100 µM in test [6]. Moreover, the TGI was above 66.3 µM in test [7]; above 100 µM in test [8]; above 29.7 µM in [9]; above 100 µM in [10]; above 100 µM in test [11]; above 65.7 µM in [12]. The TGI was above 100 µM in [13]; 2.79 µM in test [14]; above 100 µM in test [15]; 2.09 µM in [16]; 19.1 µM in [17]; 1.22 µM in test [18].

On to `C=CCN1C(=O)/C(=C/c2ccc(Cl)cc2)N=C1SC/C=C/C`, for which the TGI in test [1] is above 100 µM; in test [2], above 100 µM; in test [3], above 100 µM; in [4] it was above 100 µM; in [5], 84.2 µM; in [6], above 100 µM. In addition, the TGI in [7], in test [8], in test [9], in test [10], in test [11] and in test [12] was above 100 µM throughout. Moreover, the TGI in [13] was above 100 µM; in test [14], 55.3 µM; in [15] it was above 100 µM; in [16], 82 µM; in test [17] it was above 100 µM; in [18], above 100 µM.
